Experimental data taken from patent publication US8846704B2, “Thiopyrimidine-based compounds and uses thereof” (YM Biosciences Austraila Pty Ltd, priority 2007, dated 2014).

target: T1, FLT-3 tyrosine kinase (Homo sapiens, UniProt P36888); experiment: Alphascreen tyrosine kinase enzyme assay, FLT-3; format: biochemical; conditions: FLT3; read-out: FMS, FLT3, or HCK IC50_nM (FLT3)
T1 construct: purchased Upstate Cell Signalling Solutions, CA, USA 14-500
T1 sequence (P36888 27-993): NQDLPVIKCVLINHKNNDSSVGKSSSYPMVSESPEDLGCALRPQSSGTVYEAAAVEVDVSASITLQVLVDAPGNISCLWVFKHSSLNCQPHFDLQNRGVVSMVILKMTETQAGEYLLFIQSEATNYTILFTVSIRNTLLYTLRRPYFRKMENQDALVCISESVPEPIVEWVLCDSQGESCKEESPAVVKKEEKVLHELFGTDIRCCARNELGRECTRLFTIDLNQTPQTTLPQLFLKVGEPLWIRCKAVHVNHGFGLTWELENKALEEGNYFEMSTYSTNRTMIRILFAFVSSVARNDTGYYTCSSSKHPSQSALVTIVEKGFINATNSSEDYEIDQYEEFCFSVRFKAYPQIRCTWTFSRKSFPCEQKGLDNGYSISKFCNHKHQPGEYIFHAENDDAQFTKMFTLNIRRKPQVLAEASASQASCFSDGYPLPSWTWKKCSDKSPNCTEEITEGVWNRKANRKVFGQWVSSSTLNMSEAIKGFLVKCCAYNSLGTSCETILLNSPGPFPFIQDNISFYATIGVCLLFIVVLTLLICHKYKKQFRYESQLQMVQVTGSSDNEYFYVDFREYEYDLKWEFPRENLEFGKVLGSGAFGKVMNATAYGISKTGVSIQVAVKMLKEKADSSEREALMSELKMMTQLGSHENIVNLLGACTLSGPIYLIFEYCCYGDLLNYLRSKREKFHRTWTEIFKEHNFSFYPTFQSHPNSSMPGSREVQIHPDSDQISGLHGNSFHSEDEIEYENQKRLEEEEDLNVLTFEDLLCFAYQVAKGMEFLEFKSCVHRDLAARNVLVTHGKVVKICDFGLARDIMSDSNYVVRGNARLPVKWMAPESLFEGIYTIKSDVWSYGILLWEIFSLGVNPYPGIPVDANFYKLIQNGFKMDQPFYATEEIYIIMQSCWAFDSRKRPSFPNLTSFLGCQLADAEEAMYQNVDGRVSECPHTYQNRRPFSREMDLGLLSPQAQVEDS
Protocol: For screening purposes, compounds (in 100% DMSO) were warmed at 37 degrees for at least 20 minutes before use. A […] stock was initially made in assay buffer, where the final concentration of DMSO was 0.3%. The stocks were then diluted in 384 well Optiplates (Packard) where the final concentration of the compound was […].
FLT-3 tyrosine kinase enzyme was purchased from Upstate Cell Signalling Solutions, CA, USA (flt-3 catalog #: 14-500).
Kinase assays were performed in 384 well Optiplates (Packard) using an Alphascreen Protein Tyrosine Kinase PY100 detection kit The compounds were pre-incubated with affinity purified PTK domain in the presence of phosphotyrosine assay buffer (10 mM HEPES, pH 7.5, 100 mM MgCl2, 25 mM NaCl, […] and 0.1% Tween 20) for 20 minutes. The compounds were then incubated with substrate in the presence of ATP. The substrate used was susbtrate-1 with the sequence biotin-EGPWLEEEEEAYGWMDF-NH2 [SEQ. ID. NO. 13] (final concentration […]). For HCK 80 μm ATP was used and incubated for 60 minutes. Alphascreen phosphotyrosine acceptor beads followed by streptavidin donor beads at a concentration of 1/100 in stop buffer were added to each well under subdued light and incubated for 2-3 hours., The Alphascreen plates were read on a Packard Fusion Alpha instrument.

SMILES | IC50 [nM]
OCc1ccc(Sc2ccnc(Nc3ccc(N4CCOCC4)cc3)n2)cc1 [Compound 67, (4-(2-(4-morpholinophenylao)pyrimidin-4-ylthio)phenyl)methanol] | < 100
N#CCNCc1cccc(Sc2ccnc(Nc3ccc(N4CCOCC4)cc3)n2)c1 [Compound 68, 2-(3-(2-(4-morpholinophenylao)pyrimidin-4-ylthio)benzylao)acetonitrile] | < 500
OCc1cccc(Sc2ccnc(Nc3ccc(N4CCOCC4)cc3)n2)c1 [Compound 62, (3-(2-(4-Morpholinophenylamino)pyrimidin-4-ylthio)phenyl)methanol] | < 100
